Data on 7 compounds can be found in paper PMC3918950 (Experimental eye research, 2013).

Data set [1] addresses T1, MRP2 (Homo sapiens, UniProt Q92887). To be noted: MDCK-MRP2; [14C]-erythromycin 0.25 µCi/mL; 30 min; in presence of MK571 50 µM.
Data set [2] has as its system caspase-3. Particulars: read-out: Km (caspase-3 substrate); ref Anaspec, San Jose, CA; cited from earlier work.
Data set [3] addresses T1, MRP2. Kind of data set: in vitro. Particulars: dog.
For data set [4], the system named is Y-79 cells. Put plainly: Anti-proliferative activity. Format: cell-based, human. To be noted: for IC50: Homo sapiens, Y79, read-out: IC50 against retinoblastoma cells; for Reduction of IC50 value in the presence of moxifloxacin: Y-79, MTT, moxifloxacin 500 µM.
Data set [5] has as its system IL-8. Put plainly: Pro-inflammatory cytokines assay, IL-8 release. Format: cell-based, human. Particulars: 48 h; for Reduction of IL-8 release in presence of moxifloxacin: moxifloxacin 500 µM.
The subject of data set [6] is IL-6. Put plainly: Pro-inflammatory cytokines assay, IL-6 release. Format: cell-based, human. To be noted: 48 h; for Reduction of IL-6 release in presence of moxifloxacin: moxifloxacin 500 µM.
The target of data set [7] is T2, MDR1 (Homo sapiens, UniProt P08183). Put plainly: in vitro. Particulars: MDCK-MDR1.
T2 sequence (P08183 whole entry): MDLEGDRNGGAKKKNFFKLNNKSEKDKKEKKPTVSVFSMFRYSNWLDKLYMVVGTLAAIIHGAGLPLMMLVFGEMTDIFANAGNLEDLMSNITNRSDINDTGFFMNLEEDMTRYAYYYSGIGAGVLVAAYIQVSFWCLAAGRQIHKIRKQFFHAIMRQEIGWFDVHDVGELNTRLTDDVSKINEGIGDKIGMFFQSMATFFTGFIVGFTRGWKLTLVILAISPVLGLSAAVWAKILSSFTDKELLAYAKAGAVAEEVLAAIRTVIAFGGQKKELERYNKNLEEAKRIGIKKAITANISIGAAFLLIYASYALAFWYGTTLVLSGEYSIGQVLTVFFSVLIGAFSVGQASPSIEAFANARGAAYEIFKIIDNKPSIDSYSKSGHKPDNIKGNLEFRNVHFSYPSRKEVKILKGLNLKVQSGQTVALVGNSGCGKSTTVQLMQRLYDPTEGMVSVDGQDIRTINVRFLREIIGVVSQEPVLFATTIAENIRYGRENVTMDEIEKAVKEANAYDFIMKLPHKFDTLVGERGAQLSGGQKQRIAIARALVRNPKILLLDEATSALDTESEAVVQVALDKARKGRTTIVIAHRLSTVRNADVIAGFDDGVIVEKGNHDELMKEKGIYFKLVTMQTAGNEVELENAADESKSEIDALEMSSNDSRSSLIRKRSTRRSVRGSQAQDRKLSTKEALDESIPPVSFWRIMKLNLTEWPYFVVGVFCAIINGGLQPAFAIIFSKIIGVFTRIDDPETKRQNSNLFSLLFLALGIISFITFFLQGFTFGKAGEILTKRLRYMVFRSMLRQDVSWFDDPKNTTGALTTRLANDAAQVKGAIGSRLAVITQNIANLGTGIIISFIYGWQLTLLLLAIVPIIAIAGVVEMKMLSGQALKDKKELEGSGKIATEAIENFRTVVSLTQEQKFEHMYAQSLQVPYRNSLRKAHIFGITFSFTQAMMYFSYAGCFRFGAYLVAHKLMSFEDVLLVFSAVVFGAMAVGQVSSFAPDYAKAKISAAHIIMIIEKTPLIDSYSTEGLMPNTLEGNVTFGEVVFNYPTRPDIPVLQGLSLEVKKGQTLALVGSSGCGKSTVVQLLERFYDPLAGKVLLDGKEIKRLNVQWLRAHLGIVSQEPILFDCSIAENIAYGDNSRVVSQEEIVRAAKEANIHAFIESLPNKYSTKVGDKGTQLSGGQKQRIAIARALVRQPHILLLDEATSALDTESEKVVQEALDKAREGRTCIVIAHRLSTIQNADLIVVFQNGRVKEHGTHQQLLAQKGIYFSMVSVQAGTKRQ
In data set [8] the target is T1, MRP2. Kind of data set: Bidirectional transport of anticancer agents across MDCK-MRP2 cells. To be noted: moxifloxacin 500 µM.
Data set [9] concerns the target T2, MDR1. Kind of data set: Bidirectional transport of anticancer agents across MDCK-MDR1 cells. Particulars: moxifloxacin 500 µM.
For data set [10], the target named is T1, MRP2. Put plainly: Bi-directional transport of [14C]-erythromycin across MDCK-MRP2 cells. Particulars: pH 7.4. Format: in vitro ADME.
For data set [11], the target named is T2, MDR1. Kind of data set: Bi-directional transport of [14C]-erythromycin across MDCK-MDR1 cells. The class given is in vitro ADME. To be noted: MDCK-MDR1, pH 7.4.
Data set [12] deals with T2, MDR1.
Data set [13] deals with T2, MDR1. Kind of data set: cell-based.
Data set [14] can be described thus: in vitro. Particulars: dog, MDCK, pH 7.4.
Data set [15] addresses T1, MRP2. Kind of data set: Bi-directional transport of moxifloxacin across MDCK-MRP2 cells. The class given is in vitro ADME.
Data set [16] has as its target T1, MRP2. Kind of data set: cell-based.
Data set [17] relates to caspase-3. Put plainly: Caspase-3 assay in Y-79 cells. Format: cell-based, human.
Data set [18] has as its target T2, MDR1. Put plainly: in vitro. Particulars: MDCK-MDR1, pH 7.4.
Setting [19] is: conclusion from uptake and bi-directional transport.

T1 sequence (Q92887 whole entry): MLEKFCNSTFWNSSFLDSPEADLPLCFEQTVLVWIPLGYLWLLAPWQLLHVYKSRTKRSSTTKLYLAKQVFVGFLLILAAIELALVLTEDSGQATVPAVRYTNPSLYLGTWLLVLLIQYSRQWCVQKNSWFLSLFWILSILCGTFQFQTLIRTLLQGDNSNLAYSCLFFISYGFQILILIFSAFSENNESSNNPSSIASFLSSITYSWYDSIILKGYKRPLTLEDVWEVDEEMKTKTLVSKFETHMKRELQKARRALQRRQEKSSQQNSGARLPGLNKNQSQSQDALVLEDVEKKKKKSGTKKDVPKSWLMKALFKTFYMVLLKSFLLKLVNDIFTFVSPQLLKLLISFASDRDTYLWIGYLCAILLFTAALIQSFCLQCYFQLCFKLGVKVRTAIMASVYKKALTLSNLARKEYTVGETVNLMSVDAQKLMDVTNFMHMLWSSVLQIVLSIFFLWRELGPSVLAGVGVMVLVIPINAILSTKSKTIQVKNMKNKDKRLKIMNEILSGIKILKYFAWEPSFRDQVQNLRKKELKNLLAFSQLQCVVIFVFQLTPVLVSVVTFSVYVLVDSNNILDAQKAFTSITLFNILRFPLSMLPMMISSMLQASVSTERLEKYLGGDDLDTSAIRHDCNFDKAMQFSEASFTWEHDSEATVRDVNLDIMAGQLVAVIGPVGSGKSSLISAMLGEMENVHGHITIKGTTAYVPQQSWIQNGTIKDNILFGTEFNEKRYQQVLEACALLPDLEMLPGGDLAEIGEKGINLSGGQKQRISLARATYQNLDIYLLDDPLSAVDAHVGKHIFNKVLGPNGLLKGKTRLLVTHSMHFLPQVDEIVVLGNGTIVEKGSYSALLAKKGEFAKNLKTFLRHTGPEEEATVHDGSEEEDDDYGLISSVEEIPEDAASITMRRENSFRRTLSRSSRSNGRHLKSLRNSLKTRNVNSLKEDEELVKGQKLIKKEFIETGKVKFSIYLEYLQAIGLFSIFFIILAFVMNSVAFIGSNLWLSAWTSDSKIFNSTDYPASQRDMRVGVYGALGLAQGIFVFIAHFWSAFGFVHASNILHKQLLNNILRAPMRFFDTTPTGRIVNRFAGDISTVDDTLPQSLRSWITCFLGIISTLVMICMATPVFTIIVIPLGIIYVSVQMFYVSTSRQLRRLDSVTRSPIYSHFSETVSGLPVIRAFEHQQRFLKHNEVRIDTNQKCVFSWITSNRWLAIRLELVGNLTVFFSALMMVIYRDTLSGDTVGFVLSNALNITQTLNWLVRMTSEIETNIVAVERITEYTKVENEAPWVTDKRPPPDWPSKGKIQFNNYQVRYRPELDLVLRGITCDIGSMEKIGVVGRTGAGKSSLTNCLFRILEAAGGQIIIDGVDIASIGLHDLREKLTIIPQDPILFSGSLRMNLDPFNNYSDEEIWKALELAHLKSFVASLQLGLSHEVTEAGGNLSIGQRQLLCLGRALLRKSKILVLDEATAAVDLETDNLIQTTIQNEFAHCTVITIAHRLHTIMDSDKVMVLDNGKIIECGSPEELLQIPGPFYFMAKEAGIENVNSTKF

Consider `CN(C)C(=O)CCSC(SCCC(=O)O)c1cccc(/C=C/c2ccc3ccc(Cl)cc3n2)c1` (centres unmarked) [MK571], for which the “Cellular accumulation of [14C]-erythromycin relative to control” value in data set [1] came to 273%.

As a reminder, the Km is the concentration of substrate that gives half-maximal velocity. Take Ac-DEVD-AMC: the Km in [2] is 9.7 µM.

A word on the Papp A→B: it is how fast a substance crosses the layer from the apical side. A word on the Papp B→A: it is how fast a substance crosses the layer from the basolateral side. Broadly, the IC50 is the midpoint of a concentration-inhibition curve. Regarding `COc1cc([C@@H]2c3cc4c(cc3[C@@H](O[C@@H]3O[C@@H]5CO[C@@H](C)O[C@H]5[C@H](O)[C@H]3O)[C@H]3COC(=O)[C@H]23)OCO4)cc(OC)c1O` [Etoposide], the figures for the apparent permeability from apical to basolateral (Papp A→B) at 0.5 µCi/mL in data set [3] and in data set [7] were 37.8 ± 2.7 ×10⁻⁶ cm/s and 3.57 ± 0.65 ×10⁻⁶ cm/s, respectively. Moreover, the Papp B→A at 0.5 µCi/mL amounted to 207 ± 17.4 ×10⁻⁶ cm/s in data set [3] and 11.6 ± 1.78 ×10⁻⁶ cm/s in [7]. Further, the concentration for half-maximal inhibition (IC50) in [4] was 27.1 µM. Further, in data set [4], the “Reduction of IC50 value in the presence of moxifloxacin” value (“Reduction of IC50 value” below) was determined as 13 fold. Further, the “Release of IL-8” value in [5] (anticancer agent 0.5 µg alone) worked out at 191.90 ± 9.10 pg/mL; in [5] (anticancer agent 1.0 µg alone), 286.60 ± 16.60 pg/mL. The “Reduction of IL-8 release in presence of moxifloxacin” value (shortened to “Reduction of IL-8 release”) in data set [5] (anticancer agent 0.5 µg) is listed as 1.60 fold; in data set [5] (anticancer agent 1.0 µg), 1.28 fold. The figures for the “Release of IL-6” value in [6] (anticancer agent 0.5 µg alone) and in data set [6] (anticancer agent 1.0 µg alone) were 105.20 ± 3.90 pg/mL and 151.40 ± 10.00 pg/mL, respectively. Further, the “Reduction of IL-6 release in presence of moxifloxacin” value (shortened to “Reduction of IL-6 release”) in [6] (anticancer agent 0.5 µg) amounted to 1.3 fold; in data set [6] (anticancer agent 1.0 µg), 1.4 fold.

What is called efflux ratio is a quotient of directional permeabilities that is used to spot active efflux. As to `CC[C@@]1(O)C(=O)OCc2c1cc1n(c2=O)Cc2cc3c(CN(C)C)c(O)ccc3nc2-1` [Topotecan], the Papp A→B at 0.5 µCi/mL was determined as 8.06 ± 0.66 ×10⁻⁶ cm/s in [3] and 0.75 ± 0.03 ×10⁻⁶ cm/s in [7]. The figures for the Papp B→A at 0.5 µCi/mL in data set [3] and in data set [7] were 24.8 ± 2.44 ×10⁻⁶ cm/s and 3.5 ± 0.28 ×10⁻⁶ cm/s, respectively. Moreover, the efflux ratio at 0.5 µCi/mL in data set [3] turned out to be 3.07; in data set [7], 4.63. For the same compound, the IC50 in data set [4] is 27.9 µM. For the same compound, the “Reduction of IC50 value” value in data set [4] came to 10 fold. The results for the “Elevation of AP-BL permeability by moxifloxacin” value in [8] and in data set [9] were 1.57 fold and 2.08 fold, respectively. For the same compound, the “Release of IL-8” value in [5] (anticancer agent 0.5 µg alone) came out at 157.70 ± 12.60 pg/mL; in data set [5] (anticancer agent 1.0 µg alone), 239.20 ± 13.90 pg/mL. The “Reduction of IL-8 release” value in [5] (anticancer agent 0.5 µg) amounted to 1.48 fold; in data set [5] (anticancer agent 1.0 µg), 1.30 fold. Further, the “Release of IL-6” value in data set [6] (anticancer agent 0.5 µg alone) amounted to 156.90 ± 2.70 pg/mL; in [6] (anticancer agent 1.0 µg alone), 157.50 ± 8.80 pg/mL. The “Reduction of IL-6 release” value in [6] (anticancer agent 0.5 µg) is listed as 1.3 fold; in data set [6] (anticancer agent 1.0 µg), 1.2 fold.

In the case of `CC[C@H]1OC(=O)[C@H](C)[C@@H](O[C@H]2C[C@@](C)(OC)[C@@H](O)[C@H](C)O2)[C@H](C)[C@@H](O[C@@H]2O[C@H](C)C[C@H](N(C)C)[C@H]2O)[C@](C)(O)C[C@@H](C)C(=O)[C@H](C)[C@@H](O)[C@]1(C)O` [[^14C]-erythromycin, Erythromycin], in [10], the Papp B→A at 3 h, 0.5 µCi/mL worked out at 2.7 ± 0.18 ×10⁻⁶ cm/s. Further, in [11], the Papp A→B at 3 h, 0.5 µCi/mL is 5.44 ± 0.52 ×10⁻⁶ cm/s and the Papp B→A at 3 h, 0.5 µCi/mL came to 18.8 ± 1.05 ×10⁻⁶ cm/s.

For the compound `CC[C@]1(O)C[C@@H]2CN(CCc3c([nH]c4ccccc34)[C@@](C(=O)OC)(c3cc4c(cc3OC)N(C)[C@H]3[C@@](O)(C(=O)OC)[C@H](OC(C)=O)[C@]5(CC)C=CCN6CC[C@]43[C@@H]65)C2)C1` [Vinblastine], the apical-to-basolateral permeability (Papp A→B) at 0.5 µCi/mL in data set [3] was determined as 13.5 ± 3.24 ×10⁻⁶ cm/s; in data set [7], 1.55 ± 0.03 ×10⁻⁶ cm/s. For the same compound, the figures for the Papp B→A at 0.5 µCi/mL in data set [3] and in [7] were 73.8 ± 8.16 ×10⁻⁶ cm/s and 10.2 ± 0.47 ×10⁻⁶ cm/s, respectively. Besides, the half-maximal inhibitory concentration (IC50) in data set [4] came to 0.0519 µM. In data set [4], the “Reduction of IC50 value” value is recorded as 2 fold. Also, the “Elevation of AP-BL permeability by moxifloxacin” value in data set [9] amounted to 2.55 fold. For the same compound, the “Release of IL-8” value in [5] (anticancer agent 0.5 µg alone) was 140.20 ± 14.40 pg/mL; in data set [5] (anticancer agent 1.0 µg alone) it was 284.90 ± 18.00 pg/mL. Moreover, the “Reduction of IL-8 release” value is on record as 1.40 fold in data set [5] (anticancer agent 0.5 µg) and 1.08 fold in [5] (anticancer agent 1.0 µg). The “Release of IL-6” value in data set [6] (anticancer agent 0.5 µg alone) was 52.90 ± 4.30 pg/mL; in data set [6] (anticancer agent 1.0 µg alone), 73.60 ± 2.30 pg/mL. The “Reduction of IL-6 release” value came out at 1.11 fold in data set [6] (anticancer agent 0.5 µg) and 1.42 fold in [6] (anticancer agent 1.0 µg).

For `COc1c(N2C[C@@H]3CCCN[C@@H]3C2)c(F)cc2c(=O)c(C(=O)O)cn(C3CC3)c12` [Moxifloxacin], the “Increase of AP-BL permeability of moxifloxacin” value was found to be 2.80 times in data set [12] (MDCK-MDR1, in presence of GF120918) and 2.10 times in [15] (MDCK-MRP2, in presence of MK571). Moreover, the “Substrate of MDR1 efflux transporter” value in data set [12] (setting [19]) is recorded as “substrate”. Besides, the results for the IC50 in [13] and in data set [16] were 217 µM and 187 µM, respectively. Moreover, the Papp A→B at 500 µM in data set [14] came to 5.7 ± 0.04 ×10⁻⁶ cm/s; in [15] (human, pH 7.4), 0.78 ± 0.13 ×10⁻⁶ cm/s; in data set [18], 5.81 ± 0.44 ×10⁻⁶ cm/s. In addition, the basolateral-to-apical permeability (Papp B→A) at 500 µM in data set [14] came to 7.4 ± 0.14 ×10⁻⁶ cm/s; in data set [15] (human, pH 7.4) it was 1.97 ± 0.41 ×10⁻⁶ cm/s; in [18], 20.5 ± 2.26 ×10⁻⁶ cm/s. For the same compound, the “Substrate of MRP2 efflux transporter” value in data set [15] (setting [19]) is reported as “substrate”. In data set [17], the “Caspase-3 activity, moxifloxacin alone” value is on record as “slightly elevated”.
